Here are results for one compound from publication doi:10.1101/675579v1, “Oncoprotein GT198 is a direct target of taxol” (biorxiv, 2019).

What all share (type): binding
The target of test [1] is T1, GT198 DBD fragment 126-217 (Homo sapiens, UniProt Q9P2W1).
T1 construct: gene PSMC3IP
T1 sequence (Q9P2W1 126-217): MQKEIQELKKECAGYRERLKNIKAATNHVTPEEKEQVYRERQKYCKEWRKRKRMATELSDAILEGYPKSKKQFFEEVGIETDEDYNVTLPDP
The experiment in a line: competition with Oregon green-taxol on protein-coated plates, fluorescence.

Test [2] deals with T1, GT198 DBD fragment 126-217. The experiment in a line: competition with biotinylated ssDNA on protein-coated plates, streptavidin-HRP chemiluminescence.
Test [3] deals with T2, GT198 (wild type full length, His-tagged) (Homo sapiens, UniProt Q9P2W1).
T2 construct: gene PSMC3IP; full length aa 1-217, N-terminal His tag kept, E. coli BL21(DE3)pLysS, Ni-NTA; homodimer
T2 sequence (Q9P2W1 1-217): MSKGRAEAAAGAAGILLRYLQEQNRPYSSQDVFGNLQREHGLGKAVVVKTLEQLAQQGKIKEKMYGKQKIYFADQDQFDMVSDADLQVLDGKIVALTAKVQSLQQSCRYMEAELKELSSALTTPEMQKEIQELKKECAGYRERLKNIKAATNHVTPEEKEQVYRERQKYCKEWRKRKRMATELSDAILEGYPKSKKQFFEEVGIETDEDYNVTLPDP
The experiment in a line: competition with Oregon green-taxol on protein-coated plates, fluorescence.

Test [4] has as its target T2, GT198 (wild type full length, His-tagged). As to the kind of experiment: competition with biotinylated ssDNA on protein-coated plates, streptavidin-HRP chemiluminescence.

Structures are written as SMILES.

The IC50 is the point on the concentration scale where inhibition reaches its midpoint. High values mean weaker potency in that assay, low ones greater potency in that assay. As for `CC(=O)O[C@H]1C(=O)[C@@]2(C)[C@H]([C@H](OC(=O)c3ccccc3)[C@]3(O)C[C@H](OC(=O)[C@H](O)[C@@H](NC(=O)c4ccccc4)c4ccccc4)C(C)=C1C3(C)C)[C@]1(OC(C)=O)CO[C@@H]1C[C@@H]2O` [taxol], the half-maximal inhibitory concentration (IC50) worked out at 15.2 nM in test [1], 7.3 nM in test [2], 8.8 nM in test [3] and 8.6 nM in test [4].
